# Test results published in ChEMBL document CHEMBL5500328, “Comprehensive review on the elaboration of payloads derived from natural products for antibody-drug conjugates” (Eur J Med Chem, 2024).
# How the values were obtained:
# [1] = Cytotoxicity against human L540cy assessed as reduction in cell growth incubated for 4 days by CellTiter-Glo assay; assay type: functional, cell-based; conditions: 96 h
# [2] = tested on: CCRF-CEM; assay: Cytotoxicity against human CCRF-CEM cells assessed as reduction in cell growth; assay type: functional, cell-based
# [3] = tested on: KB 3-1; assay: Cytotoxicity against human KB-3-1 cells assessed as inhibition of cell growth; assay type: functional, cell-based
# [4] = molecular target: Tubulin; assay: Binding affinity to tubulin (unknown origin) assessed as dissociation constant by SPR analysis; assay type: protein-complex assay, Homo sapiens
# [5] = tested on: LoVo; assay: Cytotoxicity against human LoVo cells; assay type: functional, cell-based
# [6] = tested on: KB; assay: Cytotoxicity against human KB cells assessed as reduction in cell viability; assay type: functional, cell-based
smiles,measurement,setting,value
CC[C@@]1(O)C(=O)OCc2c1cc1n(c2=O)Cc2cc3c(CN)c4c(cc3nc2-1)OCO4,IC50,[1],1 nM
COc1ccc(C[C@H]2NC(=O)/C=C/C[C@@H]([C@H](C)[C@H]3O[C@H]3c3ccc(F)cc3)OC(=O)[C@H](CC(C)C)OC(=O)C(C)(C)CNC2=O)cc1Cl,IC50,[2],0.033 nM
COc1ccc(C[C@H]2NC(=O)/C=C/C[C@@H]([C@H](C)[C@H]3O[C@H]3c3ccccc3)OC(=O)[C@H](CC(C)C)OC(=O)C(C)(C)CNC2=O)cc1Cl,IC50,[3],0.015 nM
same,Kd,[4],47 nM
COc1ccc(C[C@H]2NC(=O)/C=C/C[C@@H]([C@H](C)[C@H]3O[C@H]3c3ccccc3)OC(=O)[C@H](CC(C)C)OC(=O)[C@H](C)CNC2=O)cc1Cl [CRYPTOPHYCIN 39],IC50,[5],0.00763 nM
same,IC50,[6],0.00458 nM
